Results: article PMC3884839, “Pharmacokinetics and pharmacodynamics utilizing unbound target tissue exposure as part of a disposition-based rationale for lead optimization of benzoxaboroles in the treatment of Stage 2 Human African Trypanosomiasis” (Parasitology, 2013)
Like-named read-outs stand apart in the source and are kept apart here. Each block holds one molecule with its values, some of them ahead of it.

What was measured:
T. b. brucei = experiment: Serum-shift assay (effect of foetal calf serum on trypanocidal IC50); type: cell-based, Trypanosoma brucei brucei; details: 72 h, relative to 2·5% serum
Experimental: To assess the potential effects of protein binding on trypanocidal activity, parasite viability assays were performed in the presence of increasing concentrations (2·5–50%) of foetal calf serum (Invitrogen, Carlsbad, CA) in HMI-9 media. T. b. brucei parasites were conditioned to the test serum concentrations for at least one round of passage prior to assay. Test compounds were added, incubated for 72 h, signal measured and IC50 determinations were conducted as described above using the resazurin endpoint. The fold change in IC50 from minimal serum concentration to maximal serum concentration was calculated and used to compare compounds and their potential for being restrictively protein bound.

[1] = intravenous 2·2–3·6 mg kg^−1, uninfected vervet monkeys; ref Burri et al. [1994]; cited from earlier work
[2] = cited from earlier work
[3] = human patients, 24 h after last injection of multi-day regimen; ref Burri and Keiser, [2001]; cited from earlier work
T. brucei = details: cited from earlier work
[4] = Single oral dose pharmacokinetics and CNS penetration in male CD-1 mice; type: in vivo, mouse
Experimental: The CNS disposition and pharmacokinetics of the benzoxaboroles were evaluated in infected and uninfected mice following oral administration. In vivo phases of single-dose rodent PK studies were performed at Vivisource (Waltham, MA) following Institutional Animal Care and Use Committee (IACUC) review in an Association for Assessment and Accreditation of Laboratory Animal Care International (AAALAC)-approved facility. Studies in Trypanosoma brucei brucei (TREU 667 strain) infected mice, or uninfected satellite animals, were performed after IACUC review at Pace University (NewYork, NY).
Male CD-1 or female Swiss Webster mice (approximately 25 g) were administered test compounds by oral gavage either once (QD) or twice per day (Q12 h) with doses ranging between 6 and 100 mg kg^−1 as described below. All compounds were formulated as an in situ sodium salt in 2% (v/v) ethanol, 5% (m/v) dextrose, to yield typically clear colourless solutions that were administered at 4 mL kg^−1. Blood samples for pharmacokinetic studies were collected into polypropylene tubes containing K2EDTA anticoagulant and stored on wet ice until centrifuged and processed to plasma. Plasma was stored at −80 °C. Blood samples from mice were collected via cardiac puncture under terminal anaesthesia. Rodents were euthanized in a CO2 chamber before collection of terminal blood or tissue samples. Brain tissues were blotted dry and stored at approximately −80 °C.
Plasma (50 μL) was treated with 4 volumes of ice-cold methanol (containing 25 ng mL^−1 of either deuterium (d6)-labelled SCYX-7158 internal standard (SCYX-5232) for SCYX-7158 analyses or a related benzoxaborole for other compounds) to precipitate proteins. Treated samples were gently mixed on a 96-well plate shaker for approximately 10 min then centrifuged at approximately 3000 g and 15 °C for 15 min. Supernatants were transferred to fresh 96-well plates for analysis by means of LC-MSMS. Samples of tissue homogenate (50 μL), or buffer from protein binding studies, were treated similarly to plasma samples.
All biological samples were assayed by a verified LC-MSMS method employing two dimensional chromatographic separation to overcome ion suppression (Annesely, [2003]) caused by co-elution of endogenous components with benzoxaboroles. In summary, treated samples were loaded onto Phenomenex (Torrance, CA) Synergi Polar RP, 4 μ, 50×2 mm extraction columns and subsequently back-eluted onto a Phenomenex Luna C8(2) 3 μ, 50×2 mm analytical columns protected by a Phenomenex C8 guard cartridge. Mobile phases for extraction and analytical columns consisted of 5 mM ammonium formate and 0·1% (v/v) formic acid in water (A), and 5 mM ammonium formate and 0·1% (v/v) formic acid in methanol (B). […]

L929 mammalian cell line = experiment: L929 mammalian cell cytotoxicity / selectivity; type: cell-based; details: parasite vs L929
P-gp (human MDR1) = experiment: MDCKII-hMDR1 monolayer permeability and Pgp-mediated efflux; type: in vitro ADME; details: dog, 3 μM
Experimental: (§1) The propensity of test compounds to cross the BBB was examined using an in vitro MDCKII-hMDR1 monolayer assay (Polli et al. [2001]). In summary, MDCKII-hMDR1 cells (Netherlands Cancer Institute, Amsterdam, the Netherlands) were seeded at a density of 3×10^5 cells per well onto microporous polycarbonate membranes in 12 well Costar Transwell plates (Corning Inc., Lowell, MA). The cells were incubated for 3 days during which time they formed confluent monolayers. Trans-epithelial resistance (TEER) was measured for each insert to ensure the integrity of the monolayer (acceptable TEER >160 Ω cm^2). The permeability and susceptibility for Pgp-mediated efflux was evaluated by adding each compound at a concentration of 3 μM, in the presence or absence of 2 μM GF120918 (a potent Pgp inhibitor), to the apical compartment. Competency of the Pgp efflux transporter was confirmed by assay of propranolol (non-substrate) and amprenavir (substrate). Cell monolayers were incubated in triplicate with shaking (160 rpm) at 37 °C in a 5% CO2-enriched humidified atmosphere for 1 h. Samples were removed from the apical and basolateral compartments after incubation and assayed for test compound concentrations by LC-MSMS. Values for mass balance, PappA−B, PappA−B+GF918, and absorption quotient (AQ) were calculated for each compound (Troutman and Thakker, [2003]; Thiel-Demby et al. [2004]). Acceptance criterion for mass balance was 70–120%.

[5] = system: MDCKII-hMDR1 monolayer (Pgp efflux transporter); experiment: as above; type: in vitro ADME; details: for Mass balance A–B+GF918 / Mass balance A–B: 3 μM; for Mass balance A–B+GF918: with GF918; for Mass balance A–B: without GF918
Experimental: as §1

[6] = Binding to human plasma protein by rapid equilibrium dialysis; type: in vitro ADME; details: 1 μg mL^−1
Experimental: Binding to plasma proteins, brain homogenates or proteins in serum-fortified HMI-9 media was determined by rapid equilibrium dialysis (RED) (Pierce, Rockford, IL) using a 48-well plate-based format according to the manufacturer's instructions. Briefly, test compound was added to fresh plasma (Bioreclamation, Liverpool, NY) at the required concentrations, freshly prepared brain homogenate or media. Duplicate aliquots of each sample were transferred into the sample chambers of the RED devices, and dialysis buffer (BupH PBS) was added to the buffer chambers. The plates were sealed and incubated at 37 °C for 4 h. After dialysis, samples collected from the buffer and tissue chambers were treated with ice-cold methanol (3 volumes for plasma or HMI-9 media, 4 volumes for brain) to precipitate proteins. The treated samples were centrifuged for 10 min at approximately 3000 g at 15 °C. The supernatants were assayed for test compound by LC-MSMS. Calibration standards and quality control samples were prepared in matched matrix and assayed with samples. Values for unbound and bound fractions and mass balance were calculated. Concordance of binding for each batch of plasma was confirmed by assay of warfarin, imipramine and carbamezapine. Acceptance criterion for mass balance was 70–120%.

[7] = parameters: method as in Milford et al. [1993]; details: human patients; ref Milford et al. [1993]; cited from earlier work
[8] = parameters: method as in Sanderson et al. [2008]; details: mice; ref Sanderson et al. [2008]; cited from earlier work
T. b. brucei (TREU 667) = experiment: Murine model of Stage 2 (CNS) HAT; type: in vivo, mouse; details: oral administration
Experimental: The efficacy of benzoxaboroles was evaluated in a murine model of Stage 2 (CNS) HAT (Nare et al. [2010]; Jacobs et al. [2011]). In summary, mice (n = 10 per group) were infected by bolus i.p. injection of 1×10^4 T. b. brucei (TREU 667) parasites. A single bolus i.p. dose (10 mg kg^-1) of berenil (Sigma-Aldrich, St. Louis, MO) was administered on day 4 as a positive treatment control for haemolymphatic-stage infection. Infection of the remaining animals proceeded for 21 days to establish a CNS infection before treatment with either a single dose of berenil (as above) or test compounds by the oral route either once or twice daily over 7 days at the doses indicated below. Animals were checked at least weekly for parasitaemia and were immediately removed from cages and euthanized upon recrudescence. Animals were considered cured if they were […] for at least 180 days after treatment.

[9] = MDCK-MDR1, with GF120918 2 μM, with 2 μM GF120918, read-out: Papp, A–B direction+GF918
[10] = MDCK-MDR1, read-out: Papp, A–B direction

SMILES: Cc1ccc(C(=O)Nc2ccc(S(=O)(=O)O)c3cc(S(=O)(=O)O)cc(S(=O)(=O)O)c23)cc1NC(=O)c1cccc(NC(=O)Nc2cccc(C(=O)Nc3cc(C(=O)Nc4ccc(S(=O)(=O)O)c5cc(S(=O)(=O)O)cc(S(=O)(=O)O)c45)ccc3C)c2)c1 [suramin]
fold change in IC50 between 2·5 and 50% calf serum (T. b. brucei): 26 fold

SMILES: Nc1nc(N)nc(Nc2ccc([As]3SCC(CO)S3)cc2)n1 (stereo not shown) [melarsoprol]
maximum concentration in CSF [1]: ~50 ng/mL
drug-induced death, patients ([2]; Stage 2 HAT patients, ref Schmid et al. [2004], Doua et al. [2005], Kuepfer et al. [2012]): 2–10%
failure rate with treatment ([2]; ref Legros et al. [1999]): 3–30%
CSF concentration [3]: 39 to 79 ng/mL
in vitro MIC (T. brucei; ref Burri et al. [1994]): 2 to 100 ng/mL

SMILES: NCCCC(N)(C(=O)O)C(F)F (stereo not shown) [eflornithine]
CSF level at steady state [7]: 5 to 150 nM
maximum concentration (CNS exposure) [8]: 10 to 40 nM
in vitro MIC (T. brucei; ref Sanderson et al. [2008]): ca. 50 μM

More lines, main results first:

time CNS (brain) total concentration above MIC [4]: 1 h
time plasma concentration maintained above MIC ([4]; total concentration): approximately 7 h
Papp A→B at 1 h, 3 μM (P-gp (human MDR1); [9]): 46.5 ×10⁻⁶ cm/s
Papp A→B at 1 h, 3 μM (P-gp (human MDR1); [10]): 43.8 ×10⁻⁶ cm/s
P-gp classification [5]: Non-substrate
Mass balance A–B+GF918 [5]: 99%
Mass balance A–B [5]: 94%
Mass balance [6]: 106%
SMILES: [O-][S+](c1ccc(Cl)cc1)c1ccc2c(c1)B(O)OC2 (stereo not shown) [AN2920]
Selectivity (L929 mammalian cell line): ⩾49

time CNS (brain) total concentration above MIC [4]: approximately 10 h
Papp A→B at 1 h, 3 μM (P-gp (human MDR1); [9]): 38.6 ×10⁻⁶ cm/s
Papp A→B at 1 h, 3 μM (P-gp (human MDR1); [10]): 37.9 ×10⁻⁶ cm/s
P-gp classification [5]: Non-substrate
Mass balance A–B+GF918 [5]: 95%
Mass balance A–B [5]: 89%
Mass balance [6]: 97%
SMILES: O=C(Nc1ccc2c(c1)B(O)OC2)c1ccc(F)cc1C(F)(F)F [SCYX-6759]
Selectivity (L929 mammalian cell line): ⩾136
cures in the CNS (Stage 2) murine model (T. b. brucei (TREU 667)): 100%

Papp A→B at 1 h, 3 μM (P-gp (human MDR1); [9]): 43.4 ×10⁻⁶ cm/s
Papp A→B at 1 h, 3 μM (P-gp (human MDR1); [10]): 42.4 ×10⁻⁶ cm/s
P-gp classification [5]: Non-substrate
Mass balance A–B+GF918 [5]: 90%
Mass balance A–B [5]: 92%
Mass balance [6]: 110%
SMILES: O=C(Nc1ccc2c(c1)B(O)OC2)c1ccccc1C(F)(F)F [AN3520]
Selectivity (L929 mammalian cell line): ⩾94
